The values that follow come from patent publication US6642227B2, “Inhibitors of c-Jun N-terminal kinases (JNK) and other protein kinases” (Vertex Pharmaceuticals Incorporated, priority 2001, dated 2003).

Holding throughout (type): biochemical
In one assay the target is T1, activated JNK3 (Homo sapiens, UniProt P53779).
T1 construct: One such construct encodes amino acid residues Ser40-Glu402 of JNK3α1 and is preceded by Met and Gly residues; Met-Gly dipeptide (initiator Met plus Gly added for the NcoI site) (N); made in house; host or cells: E. coli BL21 (DE3)
Briefly: JNK inhibition assay (spectrophotometric coupled-enzyme assay). An excerpt: A BLAST search of the EST database using the published JNK3α1 cDNA as a query identified an EST clone (#632588) that contained the entire coding sequence for human JNK3α1. Polymerase chain reactions (PCR) using pfu polymerase (Strategene) were used to introduce restriction sites into the cDNA for cloning into the pET-15B expression vector at the NcoI and BamHI sites. The protein was expressed in E. coli. Due to the poor solubility of the expressed full-length protein (Met 1-Gln 422), an N-terminally truncated protein starting at Ser residue at position 40 (Ser 40) was produced. This truncation corresponds to Ser 2 of JNK1 and JNK2 proteins, and is preceded by a methionine (initiation) and a glycine residue. The glycine residue was added in order to introduce an NcoI site for cloning into the expression vector. In addition, systematic C-terminal truncations were performed by PCR to identify a construct that give rise to diffraction-quality crystals. One such construct encodes amino acid residues Ser40-Glu402 of JNK3α1 and is preceded by Met and Gly residues.
The construct was prepared by PCR using deoxyoligonucleotides: 5′ […] 3′ (forward primer with initiation codon underlined)(SEQ ID NO:1) and 5′ […] 3′ (reverse primer with stop codon underlined)(SEQ ID NO:2) as primers and was confirmed by DNA sequencing.
E.coli strain BL21 (DE3) (Novagen) was transformed with the JNK3 expression construct and grown at 30° C. in LB supplemented with 100 μg/ml carbenicillin in shaker flasks until the cells were in log phase (OD600˜0.8). Isopropylthio-β-D-[…] (IPTG) was added to a final concentration of 0.8 mM and the cells were harvested 2 hours later by centrifugation.
E. coli cell paste containing JNK3 was resuspended in 10 volumes/g lysis buffer (50 mM HEPES, pH 7.2, containing 10% glycerol (v/v), 100 mM NaCl, 2 mM DTT, 0.1 mM PMSF, 2 μg/ml Pepstatin, lug/ml each of E-64 and Leupeptin). Cells were lysed on ice using a microfluidizer and centrifuged at 100,000×g for 30 min at 4° C. The 100,000×g supernatant was diluted 1:5 with Buffer A (20 mM HEPES, pH 7.0, 10% glycerol (v/v), 2 mM DTT) and purified by SP-Sepharose (Pharmacia) cation-exchange chromatography (column dimensions: 2.6×20 cm) at 4° C. The resin was washed with 5 column volumes of Buffer A, followed by 5 column volumes of Buffer A containing 50 mM NaCl. Bound JNK3 was eluted with a 7.5 column volume linear gradient of 50-300 mM NaCl. JNK3 eluted between 150-200 mM NaCl.
Five mg of JNK3 was diluted to 0.5 mg/ml in 50 mM HEPES buffer, pH 7.5, containing 100 mM NaCl, 5 mM DTT, 20 mM MgCl2 and 1 mM ATP. GST-MKK7(DD) was added at a molar ratio of 1:2.5 GST-MKK7:JNK3. After incubation for 30 minutes at 25° C., the reaction mixture was concentrated 5-fold by ultrafiltration in a Centriprep-30 (Amicon, Beverly, Mass.), diluted to 10 ml and an additional 1 mM ATP added. This procedure was repeated three times to remove ADP and replenish ATP. The final addition of ATP was 5 mM and the mixture incubated overnight at 4° C.
The activated JNK3/GST-MKK7(DD) reaction mixture was exchanged into 50 mM HEPES buffer, pH 7.5, containing 5 mM DTT and 5% glycerol (w/v) by dialysis or ultrafiltration. The reaction mixture was adjusted to 1.1 M potassium phosphate, pH 7.5, and purified by hydrophobic interaction chromatography (at 25° C.) using a Rainin Hydropore column. […] Activated JNK3 (i.e. doubly phosphorylated JNK3) was stored at −70° C. at 0.25-1 mg/ml.
Compounds were assayed for the inhibition of JNK3 by a spectrophotometric coupled-enzyme assay. In this assay, a fixed concentration of activated JNK3 (10 nM) was incubated with various concentrations of a potential inhibitor dissolved in DMSO for 10 minutes at 30° C. in a buffer containing 0.1 M HEPES buffer, pH 7.5, containing 10 mM MgCl2, 2.5 mM phosphoenolpyruvate, 200 μM NADH, 150 μg/mL pyruvate kinase, 50 μg/mL lactate dehydrogenase, and 200 μM EGF receptor peptide. […]

A further assay addresses T2, human Src kinase (Homo sapiens, UniProt P12931).
T2 construct: full length recombinant human Src kinase; purchased Upstate Biotechnology 14-117; host or cells: baculovirus-infected cells
Briefly: Src inhibition assay (A: radioactivity-based or B: spectrophotometric coupled-enzyme assay). To be noted: assay A or B not specified; inhibitor concentration not given. On the procedure: The compounds were evaluated as inhibitors of human Src kinase using either a radioactivity-based assay or spectrophotometric assay.
The compounds were assayed as inhibitors of full length recombinant human Src kinase (from Upstate Biotechnology, cat. no. 14-117) expressed and purified from baculo viral cells. Src kinase activity was monitored by following the incorporation of ^33p from ATP into the tyrosine of a random poly Glu-Tyr polymer substrate of composition, Glu:Tyr=4:1 (Sigma, cat. no. P-0275). The following were the final concentrations of the assay components: 0.05 M HEPES, pH 7.6, 10 mM MgCl2, 2 mM DTT, 0.25 mg/ml BSA, 10 μM ATP (1-2 uCi ^33P-ATP per reaction), 5 mg/ml poly Glu-Tyr, and 1-2 units of recombinant human Src kinase. In a typical assay, all the reaction components with the exception of ATP were pre-mixed and aliquoted into assay plate wells.
Inhibitors dissolved in DMSO were added to the wells to give a final DMSO concentration of 2.5%. The assay plate was incubated at 30° C. for 10 min before initiating the reaction with ^33P-ATP. After 20 min of reaction, the reactions were quenched with 150 μl of 10% trichloroacetic acid (TCA) containing 20 mM Na3PO4. The quenched samples were then transferred to a 96-well filter plate (Whatman, UNI-Filter GF/F Glass Fiber Filter, cat no. 7700-3310) installed on a filter plate vacuum manifold. Filter plates were washed four times with 10% TCA containing 20 mM Na3PO4 and then 4 times with methanol. 200 μl of scintillation fluid was then added to each well. The plates were sealed and the amount of radioactivity associated with the filters was quantified on a TopCount scintillation counter. The radioactivity incorporated was plotted as a function of the inhibitor concentration. The data was fitted to a competitive inhibition kinetics model to get the Ki for the compound.
The ADP produced from ATP by the human recombinant Src kinase-catalyzed phosphorylation of poly Glu-Tyr substrate was quanitified using a coupled enzyme assay (Fox et al (1998) Protein Sci 7, 2249). In this assay one molecule of NADH is oxidised to NAD for every molecule of ADP produced in the kinase reaction. The disappearance of NADH can be conveniently followed at 340 nm.
The following were the final concentrations of the assay components: 0.025 M HEPES, pH 7.6, 10 mM MgCl2, 2 mM DTT, 0.25 mg/ml poly Glu-Tyr, and 25 nM of recombinant human Src kinase. Final concentrations of the components of the coupled enzyme system were 2.5 mM phosphoenolpyruvate, 200 μM NADH, 30 μg/ml pyruvate kinase and 10 μg/ml lactate dehydrogenase.
In a typical assay, all the reaction components with the exception of ATP were pre-mixed and aliquoted into assay plate wells. Inhibitors dissolved in DMSO were added to the wells to give a final DMSO concentration of 2.5%. The assay plate was incubated at 30 C. for 10 min before initiating the reaction with 100 μM ATP. The absorbance change at 340 nm with time, the rate of the reaction, was monitored on a molecular devices plate reader. The data of rate as a function of the inhibitor concentration was fitted to compettive inhibition kinetics model to get the Ki for the compound.

The target in a further assay is human Lck kinase (UniProt P06239). Briefly: Lck inhibition assay (A: radioactivity-based or B: spectrophotometric coupled-enzyme assay). To be noted: read-out: Lck Activity (Ki rating). On the procedure: The compounds were evaluated as inhibitors of human Lck kinase using either a radioactivity-based assay or spectrophotometric assay.
The compounds were assayed as inhibitors of full length bovine thymus Lck kinase (from Upstate Biotechnology, cat. no. 14-106) expressed and purified from baculo viral cells. Lck kinase activity was monitored by following the incorporation of ^33p from ATP into the tyrosine of a random poly Glu-Tyr polymer substrate of composition, Glu:Tyr=4:1 (Sigma, cat. no. P-0275). The following were the final concentrations of the assay components: 0.025 M HEPES, pH 7.6, 10 mM MgCl2, 2 mM DTT, 0.25 mg/ml BSA, 10 μM ATP (1-2 μCi ^33P-ATP per reaction), 5 mg/ml poly Glu-Tyr, and 1-2 units of recombinant human […] kinase. In a typical assay, all the reaction components with the exception of ATP were pre-mixed and aliquoted into assay plate wells. Inhibitors dissolved in DMSO were added to the wells to give a final DMSO concentration of 2.5%. The assay plate was incubated at 30 C. for 10 min before initiating the reaction with ^33P-ATP. After 20 min of reaction, the reactions were quenched with 150 μl of 10% trichloroacetic acid (TCA) containing 20 mM Na3PO4. The quenched samples were then transferred to a 96-well filter plate (Whatman, UNI-Filter GF/F Glass Fiber Filter, cat no. 7700-3310) installed on a filter plate vacuum manifold. Filter plates were washed four times with 10% TCA containing 20 mM Na3PO4 and then 4 times with methanol. 200 μl of scintillation fluid was then added to each well. The plates were sealed and the amount of radioactivity associated with the filters was quantified on a TopCount scintillation counter. The radioactivity incorporated was plotted as a function of the inhibitor concentration. The data was fitted to a competitive inhibition kinetics model to get the Ki for the compound.
The ADP produced from ATP by the human recombinant Lck kinase-catalyzed phosphorylation of poly Glu-Tyr substrate was quanitified using a coupled enzyme assay (Fox et al (1998) Protein Sci 7, 2249). In this assay one molecule of NADH is oxidised to NAD for every molecule of ADP produced in the kinase reaction. The disappearance of NADH can be conveniently followed at 340 nm.
The following were the final concentrations of the assay components: 0.025 M HEPES, pH 7.6, 10 mM MgCl2, 2 mM DTT, 5 mg/ml poly Glu-Tyr, and 50 nM of recombinant human Lck kinase. Final concentrations of the components of the coupled enzyme system were 2.5 mM phosphoenolpyruvate, 200 μM NADH, 30 μg/ml pyruvate kinase and 10 μg/ml lactate dehydrogenase.
In a typical assay, all the reaction components with the exception of ATP were pre-mixed and aliquoted into assay plate wells. Inhibitors dissolved in DMSO were added to the wells to give a final DMSO concentration of 2.5%. The assay plate was incubated at 30° C. for 10 min before initiating the reaction with 150 μM ATP. The absorbance change at 340 nm with time, the rate of the reaction, was monitored on a molecular devices plate reader. The data of rate as a function of the inhibitor concentration was fitted to competitive inhibition kinetics model to get the Ki for the compound.

T1 sequence (P53779 40-402): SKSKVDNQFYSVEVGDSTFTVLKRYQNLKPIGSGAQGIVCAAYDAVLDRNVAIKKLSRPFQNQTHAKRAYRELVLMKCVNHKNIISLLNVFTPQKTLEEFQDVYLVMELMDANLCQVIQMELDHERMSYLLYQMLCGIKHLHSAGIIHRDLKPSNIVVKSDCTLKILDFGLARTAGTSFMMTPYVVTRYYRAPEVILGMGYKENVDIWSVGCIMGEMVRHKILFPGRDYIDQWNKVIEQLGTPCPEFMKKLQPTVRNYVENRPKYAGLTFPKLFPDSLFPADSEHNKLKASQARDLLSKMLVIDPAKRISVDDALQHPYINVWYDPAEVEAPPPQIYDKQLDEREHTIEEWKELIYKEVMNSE
T2 sequence (P12931 whole entry): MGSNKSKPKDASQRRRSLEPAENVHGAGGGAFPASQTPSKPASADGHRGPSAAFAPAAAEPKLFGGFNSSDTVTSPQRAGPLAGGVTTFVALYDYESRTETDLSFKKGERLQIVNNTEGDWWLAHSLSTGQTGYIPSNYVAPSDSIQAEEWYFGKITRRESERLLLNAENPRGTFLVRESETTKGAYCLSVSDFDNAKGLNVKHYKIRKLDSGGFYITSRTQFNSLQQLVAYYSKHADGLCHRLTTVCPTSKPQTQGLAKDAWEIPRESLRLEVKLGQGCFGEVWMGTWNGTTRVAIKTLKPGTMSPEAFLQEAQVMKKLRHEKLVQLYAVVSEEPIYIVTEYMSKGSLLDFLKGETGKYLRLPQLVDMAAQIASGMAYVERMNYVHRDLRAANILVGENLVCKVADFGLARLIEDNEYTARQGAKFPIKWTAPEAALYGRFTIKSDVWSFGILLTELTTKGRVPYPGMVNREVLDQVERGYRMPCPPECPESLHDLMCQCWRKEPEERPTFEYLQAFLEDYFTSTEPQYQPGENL

Regarding `CSc1sc(-c2nc(C)cs2)c(C)c1-c1ccnc(Nc2ccccc2)n1` [IIb-1, {4-[4-methyl-2-methylsulfanyl-5-(4-methyl-thiazol-2-yl)-thiophen-3-yl]-pyrimidin-2-yl}-phenylamine], at activated JNK3 (inhibitor concentration not given), the “JNK3 Activity (percent inhibition class D-F)” value is on record as “D (Compounds having an activity designated as “D” provided a percent inhibition less than or equal to 24%)”. Besides, the “Src Activity (percent inhibition class D-F)” value on human Src kinase is “D (Compounds having an activity designated as “D” provided a percent inhibition less than or equal to 24%)”.

In general, Ki refers to the dissociation constant of the complex between target and ligand, obtained from inhibition or displacement. As to `Cc1cnc(Nc2ccccc2)nc1-c1sc(SCc2ccc(O)cc2)c(C#N)c1-c1cccc(Cl)c1` [Compound V-1, 4-(3-chloro-phenyl)-2-(4-hydroxy-benzylsulfanyl)-5-(5-methyl-2-phenylamino-pyrimidin-4-yl)-thiophene-3-carbonitrile], the Ki at activated JNK3 (activated JNK3 10 nM, 10 μM ATP, 30° C., read-out: JNK3 Activity (Ki class A-C)) is 100 to 1000 nM; at human Lck kinase it was less than 100 nM.
